Series [1] in a line: Moisture retention test (rate of decrease in water content of solution). Type of series: physicochemical. The following applies: 10 mass % in ion exchanged water; silica gel desiccator 25° C., RH 20%; vs water alone; FIG. 1. As to the method:
In accordance with the following test method, the rate of decrease in water content of lauryl thiogalactoside (compound of Production Example 2) solution was calculated to evaluate moisture-retaining property.
0.5 g of a sample prepared by adjusting a concentration of lauryl thiogalactoside to 10 mass % with ion exchanged water was weighed in a container made of a resin to measure an initial weight (W0).
Next, the sample was left to stand still in a silica gel desiccator (RT; 25° C., RH; 20%) to measure a time-dependent weight (Wt) of the sample.
After the completion of the test, the sample was dried in a dryer (50° C.) for 2 hours and then left to stand still in a silica gel desiccator for 2 hours to measure a dry weight (Ws).
The same operation was conducted for a control sample prepared using water alone, and the rate of decrease in water content was calculated with the following equation.
Rate of decrease in water content (%)=Ht/H0×100(Ht=Wt−Ws, H0=W0−Ws)

Series [2] deals with photoaged skin. Description: Wrinkle reduction test on photoaged skin of hairless mice (UVA/UVB irradiation). The series is classed as in vivo. The settings on record: photoaged hairless mouse skin. The text has this: A wrinkle-reducing effect in the case of applying a sample containing a base alone or lauryl thiogalactoside (compound of Production Example 2) to photoaged skin was examined by the following test methods.
Ten hairless mice, which were 10 weeks old at the start of the test, were used for each group.
Photoaging was induced by irradiation with UVA and UVB once a day, five times a week for 8 weeks. An irradiation dose was increased every week from 20 J/cm^2 to 25 J/cm^2 and to 30 J/cm^2 for UVA, from 20 mJ/cm^2 to 30 mJ/cm^2 and to 40 mJ/cm^2 for UVB, and the maximum dose was irradiated in Week 3 or later.
A wrinkle-reducing effect was evaluated by a wrinkle score and an epidermal thickness. The wrinkle score was determined in accordance with the method of Bissett et al. (Photochem. Photobiol. 46: 367-378, 1987). In other words, the size and depth of wrinkles were comprehensively evaluated with naked eyes and scored with the following four grades: 3, “large and deep wrinkles can be confirmed”; 2, “wrinkles can be confirmed”; 1, “no wrinkles can be confirmed”; and 0, “normal skin texture can be observed”. […]
A sample containing lauryl thiogalactoside in an amount of 1% in a 50 vol % ethanol aqueous solution (base) was prepared (Example 1). […] Subsequently, after the completion of the application, the wrinkle score was determined. […]

Series [3] is described as follows: Ordinary safety test.

As to `CCCCCCCCCCCCSC1OC(CO)C(O)C(O)C1O` (stereo not shown) [lauryl thiogalactoside], the “Moisture-retaining property (rate of decrease in water content)” value in series [1] is “did not suppress water volatilization in a dry state and exhibited an insufficient moisture-retaining action”. Also, in series [2], the “Effect on epidermal thickening (in words)” value is “had an effect of alleviating the epidermal thickening owing to photoaging” and the “Effect on wrinkles / wrinkle score (in words)” value is “effective for wrinkles induced by photoaging”. The “Result in an ordinary safety test” value in series [3] is on record as “does not have any problem in an ordinary safety test”.

Values taken from patent publication US20110124586A1, “EXTERNAL PREPARATION FOR SKIN, AND WRINKLE-REPAIRING AGENT” (Kao Corporation, priority 2008, published 2011).
